Source: the NIST ThermoML archive (doi:10.1016/j.fluid.2010.03.010)

Settings: Liquid, Vibrating tube method

CCCC[n+]1ccn(C)c1.O=S(=O)([N-]S(=O)(=O)C(F)(F)F)C(F)(F)F
Settings | mass density [kg/m3]
345.15 K, 101.33 kPa | 1392.16
346.15 K, 101.33 kPa | 1391.23
347.15 K, 101.33 kPa | 1390.31
348.15 K, 101.33 kPa | 1389.38
349.15 K, 101.33 kPa | 1388.46
350.15 K, 101.33 kPa | 1387.54
351.15 K, 101.33 kPa | 1386.61
352.15 K, 101.33 kPa | 1385.69
353.15 K, 100 kPa | 1385.8
353.15 K, 101.33 kPa | 1384.77
353.15 K, 250 kPa | 1385.9
353.15 K, 500 kPa | 1386.1
353.15 K, 1000 kPa | 1386.5
353.15 K, 2000 kPa | 1387.4
353.15 K, 5000 kPa | 1390.1
353.15 K, 10000 kPa | 1394.3
353.15 K, 14990 kPa | 1398.4
353.15 K, 20010 kPa | 1402.5
353.15 K, 24990 kPa | 1406.3
353.15 K, 30010 kPa | 1410.2
353.15 K, 34990 kPa | 1413.8
353.15 K, 40000 kPa | 1417.5
353.15 K, 45000 kPa | 1421
353.15 K, 50000 kPa | 1424.6
353.15 K, 54990 kPa | 1427.9
353.15 K, 60010 kPa | 1431.3
354.15 K, 101.33 kPa | 1383.85
355.15 K, 101.33 kPa | 1382.93
356.15 K, 101.33 kPa | 1382.01
357.15 K, 101.33 kPa | 1381.09
358.15 K, 101.33 kPa | 1380.17
359.15 K, 101.33 kPa | 1379.25
360.15 K, 101.33 kPa | 1378.34
361.15 K, 101.33 kPa | 1377.42
362.15 K, 101.33 kPa | 1376.5
363.15 K, 100 kPa | 1376.6
363.15 K, 101.33 kPa | 1375.58
363.15 K, 250 kPa | 1376.7
363.15 K, 500 kPa | 1376.9
363.15 K, 1010 kPa | 1377.4
363.15 K, 4990 kPa | 1381
363.15 K, 10010 kPa | 1385.4
363.15 K, 14990 kPa | 1389.6
363.15 K, 20010 kPa | 1393.8
363.15 K, 25000 kPa | 1397.8
363.15 K, 30010 kPa | 1401.7
363.15 K, 34990 kPa | 1405.5
363.15 K, 40000 kPa | 1409.2
363.15 K, 45010 kPa | 1412.8
363.15 K, 50000 kPa | 1416.4
363.15 K, 54990 kPa | 1419.9
363.15 K, 60000 kPa | 1423.4
373.15 K, 100 kPa | 1367.3
373.15 K, 250 kPa | 1367.4
373.15 K, 500 kPa | 1367.7
373.15 K, 1010 kPa | 1368.2
373.15 K, 2000 kPa | 1369.1
373.15 K, 4990 kPa | 1371.9
373.15 K, 10000 kPa | 1376.5
373.15 K, 14990 kPa | 1380.8
373.15 K, 20000 kPa | 1385.1
373.15 K, 24990 kPa | 1389.2
373.15 K, 30010 kPa | 1393.3
373.15 K, 34970 kPa | 1397.1
373.15 K, 40000 kPa | 1401
373.15 K, 45000 kPa | 1404.7
373.15 K, 50000 kPa | 1408.4
373.15 K, 54990 kPa | 1411.9
373.15 K, 60010 kPa | 1415.5
393.15 K, 100 kPa | 1348.8
393.15 K, 250 kPa | 1348.9
393.15 K, 500 kPa | 1349.2
393.15 K, 1000 kPa | 1349.7
393.15 K, 2000 kPa | 1350.7
393.15 K, 4990 kPa | 1353.7
393.15 K, 10000 kPa | 1358.6
393.15 K, 15000 kPa | 1363.2
393.15 K, 20010 kPa | 1367.8
393.15 K, 25000 kPa | 1372.1
393.15 K, 30010 kPa | 1376.4
393.15 K, 35000 kPa | 1380.5
393.15 K, 40000 kPa | 1384.6
393.15 K, 45000 kPa | 1388.5
393.15 K, 50000 kPa | 1392.4
393.15 K, 55020 kPa | 1396.2
393.15 K, 60000 kPa | 1399.9
413.15 K, 100 kPa | 1330
413.15 K, 250 kPa | 1330.2
413.15 K, 500 kPa | 1330.5
413.15 K, 1000 kPa | 1331
413.15 K, 2000 kPa | 1332.1
413.15 K, 4990 kPa | 1335.3
413.15 K, 10000 kPa | 1340.6
413.15 K, 14990 kPa | 1345.6
413.15 K, 20010 kPa | 1350.5
413.15 K, 25000 kPa | 1355.1
413.15 K, 30000 kPa | 1359.7
413.15 K, 34990 kPa | 1364
413.15 K, 40000 kPa | 1368.4
413.15 K, 45000 kPa | 1372.5
413.15 K, 50000 kPa | 1376.6
413.15 K, 55000 kPa | 1380.6
413.15 K, 60000 kPa | 1384.5
433.15 K, 100 kPa | 1311
433.15 K, 250 kPa | 1311.1
433.15 K, 500 kPa | 1311.4
433.15 K, 1000 kPa | 1312
433.15 K, 2000 kPa | 1313.2
433.15 K, 4990 kPa | 1316.7
433.15 K, 10000 kPa | 1322.4
433.15 K, 15000 kPa | 1327.8
433.15 K, 20010 kPa | 1333
433.15 K, 25010 kPa | 1338
433.15 K, 30010 kPa | 1342.9
433.15 K, 34990 kPa | 1347.5
433.15 K, 40000 kPa | 1352.1
433.15 K, 45000 kPa | 1356.6
433.15 K, 50000 kPa | 1360.9
433.15 K, 55000 kPa | 1365.1
433.15 K, 60000 kPa | 1369.3
453.15 K, 100 kPa | 1291.4
453.15 K, 250 kPa | 1291.7
453.15 K, 500 kPa | 1292
453.15 K, 1000 kPa | 1292.6
453.15 K, 1950 kPa | 1294
453.15 K, 4990 kPa | 1297.7
453.15 K, 10000 kPa | 1303.9
453.15 K, 15000 kPa | 1309.7
453.15 K, 20000 kPa | 1315.3
453.15 K, 25000 kPa | 1320.7
453.15 K, 30010 kPa | 1325.9
453.15 K, 35000 kPa | 1330.9
453.15 K, 40000 kPa | 1335.9
453.15 K, 45010 kPa | 1340.6
453.15 K, 50000 kPa | 1345.3
453.15 K, 54990 kPa | 1349.8
453.15 K, 60000 kPa | 1354.3
473.15 K, 100 kPa | 1271.4
473.15 K, 250 kPa | 1271.7
473.15 K, 500 kPa | 1272
473.15 K, 990 kPa | 1272.7
473.15 K, 2000 kPa | 1274.2
473.15 K, 4990 kPa | 1278.2
473.15 K, 10000 kPa | 1285
473.15 K, 15000 kPa | 1291.2
473.15 K, 20010 kPa | 1297.4
473.15 K, 24990 kPa | 1303.2
473.15 K, 30010 kPa | 1308.9
473.15 K, 34990 kPa | 1314.2
473.15 K, 40010 kPa | 1319.6
473.15 K, 45000 kPa | 1324.7
473.15 K, 50000 kPa | 1329.7
473.15 K, 55000 kPa | 1334.5
473.15 K, 60000 kPa | 1339.3
